Experiments:
[1] = tested on: velvetleaf; assay: Test Example 4: herbicidal effect by soil treatment (Table 19, symbol M); assay type: in vivo, velvetleaf (Abutilon theophrasti); settings: amount of applied herbicide 320 g/ha
Outline: (§1)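 Soil-surface application: an emulsion agent diluted with water to the predetermined dose is sprayed uniformly over seeds lying under roughly 1.5 cm of sterilized diluvial soil. Boxes stay in a greenhouse at 25° C. to 30° C. Three weeks later, each species is graded on previously defined criteria.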

[2] = tested on: wild oat; assay: Test Example 5: herbicidal effect by foliage application, plastic box (Table 20, symbol I); assay type: in vivo, wild oat (Avena fatua); settings: foliage application, 320 g/ha, three weeks after application
Outline: (§2)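 Sow seeds spot-wise in sterilized diluvial soil; cover with ~1.5 cm soil. Grow 14 days in greenhouse, 25° C. to 30° C. Spray foliage with emulsion diluted to predetermined amount. Rate effect after 3 weeks.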

[3] = tested on: chickweed; assay: Test Example 5: herbicidal effect by foliage application, plastic box (Table 20, symbol P); assay type: in vivo, common chickweed (Stellaria media); settings: foliage application, 320 g/ha, three weeks after application
Outline: as §2

[4] = tested on: barnyard grass; assay: Test Example 3: herbicidal effect by foliage application, Wagner pot (Table 18, symbol H); assay type: in vivo, barnyard grass (Echinochloa crus-galli); settings: for herbicidal effect on H: barnyard grass: amount of applied herbicide 320 g/ha
Outline: (§3)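 Plants were sown in alluvial soil held under 0.1–0.5 cm standing water and grown 14 days in a greenhouse at 25–30 °C. An emulsifiable formulation, water-diluted to the set dose, was then sprayed onto the foliage, and effects were scored three weeks later using previously defined criteria.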

[5] = tested on: rice flat sedge; assay: Test Example 3: herbicidal effect by foliage application, Wagner pot (Table 18, symbol E); assay type: in vivo, rice flat sedge (Cyperus iria); settings: for herbicidal effect on E: rice flat sedge: amount of applied herbicide 320 g/ha
Outline: as §3

[6] = tested on: southern crabgrass; assay: Test Example 4: herbicidal effect by soil treatment (Table 19, symbol F); assay type: in vivo, southern crabgrass (Digitaria ciliaris); settings: amount of applied herbicide 320 g/ha
Outline: as §1

[7] = tested on: Italian ryegrass; assay: Test Example 5: herbicidal effect by foliage application, plastic box (Table 20, symbol K); assay type: in vivo, Italian ryegrass (Lolium multiflorum); settings: foliage application, 320 g/ha, three weeks after application
Outline: as §2

[8] = tested on: persian speedwell; assay: Test Example 5: herbicidal effect by foliage application, plastic box (Table 20, symbol R); assay type: in vivo, Persian speedwell (Veronica persica); settings: foliage application, 320 g/ha, three weeks after application
Outline: as §2

[9] = tested on: wild oat; assay: Test Example 4: herbicidal effect by soil treatment (Table 19, symbol I); assay type: in vivo, wild oat (Avena fatua); settings: amount of applied herbicide 320 g/ha
Outline: as §1

[10] = tested on: barnyard grass; assay: Test Example 5: herbicidal effect by foliage application, plastic box (Table 20, symbol H); assay type: in vivo, barnyard grass (Echinochloa crus-galli); settings: foliage application, 320 g/ha, three weeks after application
Outline: as §2

[11] = tested on: green foxtail; assay: Test Example 4: herbicidal effect by soil treatment (Table 19, symbol G); assay type: in vivo, green foxtail (Setaria viridis); settings: amount of applied herbicide 320 g/ha
Outline: as §1

[12] = tested on: southern crabgrass; assay: Test Example 5: herbicidal effect by foliage application, plastic box (Table 20, symbol F); assay type: in vivo, southern crabgrass (Digitaria ciliaris); settings: foliage application, 320 g/ha, three weeks after application
Outline: as §2

[13] = tested on: blackgrass; assay: Test Example 5: herbicidal effect by foliage application, plastic box (Table 20, symbol J); assay type: in vivo, blackgrass (Alopecurus myosuroides); settings: foliage application, 320 g/ha, three weeks after application
Outline: as §2

[14] = tested on: Italian ryegrass; assay: Test Example 4: herbicidal effect by soil treatment (Table 19, symbol K); assay type: in vivo, Italian ryegrass (Lolium multiflorum); settings: amount of applied herbicide 320 g/ha
Outline: as §1

[15] = tested on: windgrass; assay: Test Example 5: herbicidal effect by foliage application, plastic box (Table 20, symbol L); assay type: in vivo, windgrass (Apera spica-venti); settings: foliage application, 320 g/ha, three weeks after application
Outline: as §2

[16] = tested on: redroot pigweed; assay: Test Example 5: herbicidal effect by foliage application, plastic box (Table 20, symbol N); assay type: in vivo, redroot pigweed (Amaranthus retroflexus); settings: foliage application, 320 g/ha, three weeks after application
Outline: as §2

[17] = tested on: barnyard grass; assay: Test Example 4: herbicidal effect by soil treatment (Table 19, symbol H); assay type: in vivo, barnyard grass (Echinochloa crus-galli); settings: amount of applied herbicide 320 g/ha
Outline: as §1

[18] = tested on: windgrass; assay: Test Example 4: herbicidal effect by soil treatment (Table 19, symbol L); assay type: in vivo, windgrass (Apera spica-venti); settings: amount of applied herbicide 320 g/ha
Outline: as §1

[19] = tested on: Chinese sprangletop; assay: Test Example 3: herbicidal effect by foliage application, Wagner pot (Table 18, symbol D); assay type: in vivo, chinese sprangletop (Leptochloa chinensis); settings: for herbicidal effect on D: Chinese sprangletop: amount of applied herbicide 320 g/ha
Outline: as §3

[20] = tested on: chickweed; assay: Test Example 4: herbicidal effect by soil treatment (Table 19, symbol P); assay type: in vivo, common chickweed (Stellaria media); settings: amount of applied herbicide 320 g/ha
Outline: as §1

[21] = tested on: velvetleaf; assay: Test Example 5: herbicidal effect by foliage application, plastic box (Table 20, symbol M); assay type: in vivo, velvetleaf (Abutilon theophrasti); settings: foliage application, 320 g/ha, three weeks after application
Outline: as §2

[22] = tested on: persian speedwell; assay: Test Example 4: herbicidal effect by soil treatment (Table 19, symbol R); assay type: in vivo, Persian speedwell (Veronica persica); settings: amount of applied herbicide 320 g/ha
Outline: as §1

[23] = tested on: lambsquarters; assay: Test Example 5: herbicidal effect by foliage application, plastic box (Table 20, symbol O); assay type: in vivo, lambsquarters (Chenopodium album); settings: foliage application, 320 g/ha, three weeks after application
Outline: as §2

[24] = tested on: blackgrass; assay: Test Example 4: herbicidal effect by soil treatment (Table 19, symbol J); assay type: in vivo, blackgrass (Alopecurus myosuroides); settings: amount of applied herbicide 320 g/ha
Outline: as §1

[25] = tested on: lambsquarters; assay: Test Example 4: herbicidal effect by soil treatment (Table 19, symbol O); assay type: in vivo, lambsquarters (Chenopodium album); settings: amount of applied herbicide 320 g/ha
Outline: as §1

[26] = tested on: green foxtail; assay: Test Example 5: herbicidal effect by foliage application, plastic box (Table 20, symbol G); assay type: in vivo, green foxtail (Setaria viridis); settings: foliage application, 320 g/ha, three weeks after application
Outline: as §2

[27] = tested on: redroot pigweed; assay: Test Example 4: herbicidal effect by soil treatment (Table 19, symbol N); assay type: in vivo, redroot pigweed (Amaranthus retroflexus); settings: amount of applied herbicide 320 g/ha
Outline: as §1

| SMILES | I: wild oat, herbicidal effect grade [2] | P: chickweed, herbicidal effect grade [3] | herbicidal effect on H: barnyard grass [4] | herbicidal effect on E: rice flat sedge [5] | K: Italian ryegrass, herbicidal effect grade [7] | R: persian speedwell, herbicidal effect grade [8] | H: barnyard grass, herbicidal effect grade [10] | F: southern crabgrass, herbicidal effect grade [12] | J: blackgrass, herbicidal effect grade [13] | L: windgrass, herbicidal effect grade [15] | N: redroot pigweed, herbicidal effect grade [16] | herbicidal effect on D: Chinese sprangletop [19] | M: velvetleaf, herbicidal effect grade [21] | O: lambsquarters, herbicidal effect grade [23] | G: green foxtail, herbicidal effect grade [26] | M: velvetleaf, herbicidal effect grade [1] | F: southern crabgrass, herbicidal effect grade [6] | I: wild oat, herbicidal effect grade [9] | G: green foxtail, herbicidal effect grade [11] | K: Italian ryegrass, herbicidal effect grade [14] | further results |
| --- | --- | --- | --- | --- | --- | --- | --- | --- | --- | --- | --- | --- | --- | --- | --- | --- | --- | --- | --- | --- | --- |
| CCc1nn(C)c(=O)c(-c2c(-c3ccc(OC(F)(F)F)cc3)sc3ccc(F)cc23)c1O [2-412] | 0 (Herbicidal rate of 5% or less (almost no effect)) | 5 (Herbicidal rate of 90% or more (almost completely withered)) | 4 (Herbicidal rate of 70% or more and less than 90%) | 4 (Herbicidal rate of 70% or more and less than 90%) | 3 (Herbicidal rate of 40% or more and less than 70%) | 5 (Herbicidal rate of 90% or more (almost completely withered)) | 4 (Herbicidal rate of 70% or more and less than 90%) | 3 (Herbicidal rate of 40% or more and less than 70%) | 0 (Herbicidal rate of 5% or less (almost no effect)) | 1 (Herbicidal rate of 5% or more and less than 20%) | 5 (Herbicidal rate of 90% or more (almost completely withered)) | 0 (Herbicidal rate of 5% or less (almost no effect)) | 3 (Herbicidal rate of 40% or more and less than 70%) | 5 (Herbicidal rate of 90% or more (almost completely withered)) | 4 (Herbicidal rate of 70% or more and less than 90%) |  |  |  |  |  | herbicidal effect, M: velvetleaf [1]: 0 (Herbicidal rate of 5% or less (almost no effect)); herbicidal effect, F: southern crabgrass [6]: 0 (Herbicidal rate of 5% or less (almost no effect)); herbicidal effect, I: wild oat [9]: 0 (Herbicidal rate of 5% or less (almost no effect)); herbicidal effect, G: green foxtail [11]: 0 (Herbicidal rate of 5% or less (almost no effect)); herbicidal effect, K: Italian ryegrass [14]: 0 (Herbicidal rate of 5% or less (almost no effect)); herbicidal effect, H: barnyard grass [17]: 0 (Herbicidal rate of 5% or less (almost no effect)); herbicidal effect, L: windgrass [18]: 0 (Herbicidal rate of 5% or less (almost no effect)); herbicidal effect, P: chickweed [20]: 0 (Herbicidal rate of 5% or less (almost no effect)); herbicidal effect, R: persian speedwell [22]: 3 (Herbicidal rate of 40% or more and less than 70%); herbicidal effect, J: blackgrass [24]: 0 (Herbicidal rate of 5% or less (almost no effect)); herbicidal effect, O: lambsquarters [25]: 1 (Herbicidal rate of 5% or more and less than 20%); herbicidal effect, N: redroot pigweed [27]: 2 (Herbicidal rate of 20% or more and less than 40%) |
| Cc1nn(C)c(=O)c(-c2c(-c3ccc(Cl)cc3)sc3cc(Cl)ccc23)c1O [3-033] | 4 (Herbicidal rate of 70% or more and less than 90%) | 5 (Herbicidal rate of 90% or more (almost completely withered)) | 4 (Herbicidal rate of 70% or more and less than 90%) | 5 (Herbicidal rate of 90% or more (almost completely withered)) | 4 (Herbicidal rate of 70% or more and less than 90%) | 5 (Herbicidal rate of 90% or more (almost completely withered)) | 4 (Herbicidal rate of 70% or more and less than 90%) | 3 (Herbicidal rate of 40% or more and less than 70%) | 4 (Herbicidal rate of 70% or more and less than 90%) | 4 (Herbicidal rate of 70% or more and less than 90%) | 5 (Herbicidal rate of 90% or more (almost completely withered)) | 3 (Herbicidal rate of 40% or more and less than 70%) | 4 (Herbicidal rate of 70% or more and less than 90%) | 4 (Herbicidal rate of 70% or more and less than 90%) | 5 (Herbicidal rate of 90% or more (almost completely withered)) | 0 (Herbicidal rate of 5% or less (almost no effect)) | 0 (Herbicidal rate of 5% or less (almost no effect)) | 0 (Herbicidal rate of 5% or less (almost no effect)) | 0 (Herbicidal rate of 5% or less (almost no effect)) | 4 (Herbicidal rate of 70% or more and less than 90%) | H: barnyard grass, herbicidal effect grade [17]: 0 (Herbicidal rate of 5% or less (almost no effect)); L: windgrass, herbicidal effect grade [18]: 3 (Herbicidal rate of 40% or more and less than 70%); P: chickweed, herbicidal effect grade [20]: 2 (Herbicidal rate of 20% or more and less than 40%); R: persian speedwell, herbicidal effect grade [22]: 3 (Herbicidal rate of 40% or more and less than 70%); J: blackgrass, herbicidal effect grade [24]: 0 (Herbicidal rate of 5% or less (almost no effect)); O: lambsquarters, herbicidal effect grade [25]: 3 (Herbicidal rate of 40% or more and less than 70%); N: redroot pigweed, herbicidal effect grade [27]: 4 (Herbicidal rate of 70% or more and less than 90%) |
| CCCC(=O)Oc1c(C)nn(C)c(=O)c1-c1c(-c2ccccc2OC)sc2cc(Cl)ccc12 [3-036] | 1 (Herbicidal rate of 5% or more and less than 20%) | 5 (Herbicidal rate of 90% or more (almost completely withered)) |  |  | 0 (Herbicidal rate of 5% or less (almost no effect)) | 5 (Herbicidal rate of 90% or more (almost completely withered)) | 5 (Herbicidal rate of 90% or more (almost completely withered)) | 1 (Herbicidal rate of 5% or more and less than 20%) | 0 (Herbicidal rate of 5% or less (almost no effect)) | 0 (Herbicidal rate of 5% or less (almost no effect)) | 5 (Herbicidal rate of 90% or more (almost completely withered)) |  | 4 (Herbicidal rate of 70% or more and less than 90%) | 3 (Herbicidal rate of 40% or more and less than 70%) | 3 (Herbicidal rate of 40% or more and less than 70%) | 2 (Herbicidal rate of 20% or more and less than 40%) | 1 (Herbicidal rate of 5% or more and less than 20%) | 0 (Herbicidal rate of 5% or less (almost no effect)) | 2 (Herbicidal rate of 20% or more and less than 40%) | 0 (Herbicidal rate of 5% or less (almost no effect)) | herbicidal effect on barnyard grass (H) ([4]; 320 g/ha): 5 (Herbicidal rate of 90% or more (almost completely withered)); herbicidal effect on rice flat sedge (E) ([5]; 320 g/ha): 4 (Herbicidal rate of 70% or more and less than 90%); H: barnyard grass, herbicidal effect grade [17]: 3 (Herbicidal rate of 40% or more and less than 70%); L: windgrass, herbicidal effect grade [18]: 3 (Herbicidal rate of 40% or more and less than 70%); herbicidal effect on Chinese sprangletop (D) ([19]; 320 g/ha): 0 (Herbicidal rate of 5% or less (almost no effect)); P: chickweed, herbicidal effect grade [20]: 3 (Herbicidal rate of 40% or more and less than 70%); R: persian speedwell, herbicidal effect grade [22]: 3 (Herbicidal rate of 40% or more and less than 70%); J: blackgrass, herbicidal effect grade [24]: 0 (Herbicidal rate of 5% or less (almost no effect)); O: lambsquarters, herbicidal effect grade [25]: 3 (Herbicidal rate of 40% or more and less than 70%); N: redroot pigweed, herbicidal effect grade [27]: 5 (Herbicidal rate of 90% or more (almost completely withered)) |
